Measured values from US20110054034A1, “METHODS OF USING […] AS ANTIMICROBIAL AGENTS” (priority 2008, published 2011).

Tests used:
Type in all cases: in vivo
[1] = test system: gram+bacterial infection on the skin; assay: Treating a topical infection in a human; settings: 2.5% cream applied twice daily, after about 4 days
From the text: A 50 kg person is diagnosed by a dermatologist with a gram+bacterial infection on the skin of their left foot. They prescribed a 2.5% cream of 5-bromo-2-[[(2E)-3-(2-naphthalenyl)-1-oxo-2-butenyl]amino]benzoic acid which they applied twice daily.

S. aureus = assay: Treating a systemic infection in a human; settings: two 300 mg tablets three daily
Description: A 70 kg person has a 102° fever and a bad cough. An internist diagnoses their problem as a systemic gram+bacterial infection of S. aureus. They prescribe trans-3-(naphth-2-yl)but-2-enoic acid-N-(2-carboxyphenyl)amide with the directions to take two 300 mg tablets three daily which the patient does.

badly infected wound = assay: Treating a systemic infection in a dog (infected wound); settings: 15 kg dog, 300 mg twice a day mixed in food
Description: A 15 kg dog with a badly infected wound is given 300 mg twice a day mixed in his food of trans-3-(naphth-2-yl)-but-2-enoic acid-N-(2-carboxyphenyl)amide. After 2 days the wound looks better and after 5 days it is almost healed.

Row | SMILES | appearance of the skin [1] | gram+bacterial infection on the skin of the foot [1] | cough (S. aureus; after five days) | temperature (S. aureus; after five days) | fever (S. aureus; after two days) | appearance of the infected wound (badly infected wound; after 2 days) | healing of the infected wound (badly infected wound; after 5 days)
1 | C/C(=C\C(=O)Nc1ccc(Br)cc1C(=O)O)c1ccc2ccccc2c1 [5-bromo-2-[[(2E)-3-(2-naphthalenyl)-1-oxo-2-butenyl]amino]benzoic acid] | appears normal | the infection was gone | – | – | – | – | –
2 | C/C(=C\C(=O)Nc1ccccc1C(=O)O)c1ccc2ccccc2c1 [trans-3-(naphth-2-yl)-but-2-enoic acid-N-(2-carboxy-phenyl)-amide] | – | – | cough is gone | temperature is normal | the fever comes down | looks better | almost healed
